Literature values in patent US20200229407A1 (priority 2017, published 2020).

Assays:
scrapie agent = conditions: mouse, in vivo
[1] = test system: prion replication in neuroblastoma cells

Row | Compound | incubation period (scrapie agent) | cell-surface PrP (cell-surface PrP) | prion replication [1]
1 | pentosan polysulphate [PPS] | prolonged the incubation period | – | –
2 | COc1ccc(CCN2CCC(Nc3nc4ccccc4n3Cc3ccc(F)cc3)CC2)cc1 [astemizole] | – | reducing cell-surface PrP | inhibiting prion replication
3 | C=CC[C@@H]1/C=C(\C)C[C@H](C)C[C@H](OC)[C@H]2O[C@@](O)(C(=O)C(=O)N3CCCC[C@H]3C(=O)O[C@H](/C(C)=C/[C@@H]3CC[C@@H](O)[C@H](OC)C3)[C@H](C)[C@@H](O)CC1=O)[C@H](C)C[C@@H]2OC [tacrolimus] | – | reducing cell-surface PrP | inhibiting prion replication
